Laboratory results published in patent US11208421B2, “2-carboxypenam compound or salt thereof, pharmaceutical composition containing novel 2-carboxypenam compound or salt thereof, and applications thereof” (priority 2017, dated 2021).
Converted amounts (≈) assume the structure as drawn.

Legend:
Format in all cases: cell-based
[1] = system: Pseudomonas aeruginosa strain ATCC 27853; assay: Antibacterial activity evaluation test (MIC), broth microdilution, strain ATCC 27853; conditions: for MIC Pseudomonas aeruginosa strain ATCC 27853: cation-adjusted Mueller-Hinton medium supplemented with 20 M of apotransferrin, 35° C., 16 to 20 hours; for MIC: Pseudomonas aeruginosa, ATCC27853, read-out: MIC Pseudomonas aeruginosa strain ATCC 27853
Description: (§1) The minimum inhibitory concentration (MIC) was measured according to the Clinical and Laboratory Standards Institute (CLSI) standard method by using the following broth microdilution method.
(§2) As bacteria, a Pseudomonas aeruginosa strain ATCC 27853, a Pseudomonas aeruginosa AmpC derepression mutant strain S-3028, and a Pseudomonas aeruginosa IMP-1-producing strain S-2838 were used.
(§3) The Pseudomonas aeruginosa AmpC-derepression mutant strain S-3028 or the Pseudomonas aeruginosa IMP-1-producing strain S-2838 was cultured on a Mueller Hinton agar medium overnight, thereby preparing test bacterial cells. The obtained test bacterial cells were scraped off, suspended to yield 0.5 McFarland equivalence, and diluted 10-fold to obtain an inoculum. A cation-adjusted Mueller Hinton medium containing a test compound was inoculated with 0.0005 mL of the inoculum, and the cells were cultured at 35° C. for 16 to 20 hours. The minimum drug concentration at which the growth of bacteria was not visually observed was defined as MIC.
The MIC of the Pseudomonas aeruginosa ATCC strain 27853 was measured in the same manner as described above by using a cation-adjusted Mueller-Hinton medium supplemented with […] of apotransferrin as a final concentration.

[2] = system: Pseudomonas aeruginosa AmpC derepression mutant strain S-3028; assay: Antibacterial activity evaluation test (MIC), broth microdilution, AmpC derepression mutant strain S-3028; conditions: for MIC Pseudomonas aeruginosa strain S-3028: AmpC derepression mutant, cation-adjusted Mueller Hinton medium, 35° C., 16 to 20 hours; for MIC: Pseudomonas aeruginosa, read-out: MIC Pseudomonas aeruginosa strain S-3028
Description: as §1, §2, §3

[3] = system: Pseudomonas aeruginosa IMP-1-producing strain S-2838; assay: Antibacterial activity evaluation test (MIC), broth microdilution, IMP-1-producing strain S-2838; conditions: for MIC Pseudomonas aeruginosa strain S-2838: IMP-1-producing strain, cation-adjusted Mueller Hinton medium, 35° C., 16 to 20 hours; for MIC: Pseudomonas aeruginosa, read-out: MIC Pseudomonas aeruginosa strain S-2838
Description: as §1, §2, §3

SMILES | MIC Pseudomonas aeruginosa strain ATCC 27853 [1] [µg/mL] | MIC Pseudomonas aeruginosa strain S-3028 [2] [µg/mL] | MIC Pseudomonas aeruginosa strain S-2838 [3] [µg/mL] | MIC [1] [µg/mL] | MIC [2] [µg/mL] | MIC [3] [µg/mL]
CC(C)(O/N=C(\C(=O)N[C@@H]1C(=O)N2C[C@](SC[C@@H]3COCCN3C(=O)c3ccc(O)c(O)c3Cl)(C(=O)O)S[C@H]12)c1csc(N)n1)C(=O)O [Example 27, (3R,5R,6R)-6-((Z)-2-(2-aminothiazol-4-yl)-2-(((2-carboxypropan-2-yl)oxy)imino)acetamide)-3-((((S)-4-(2-chloro-3,4-dihydroxybenzoyl)morpholin-3-yl)methyl)thio)-7-oxo-4-thia-1-azabicyclo[3.2.0]heptane-3-carboxylic acid] | 1 (≈ 1.34 µM) | 0.5 (≈ 0.671 µM) | 0.5 (≈ 0.671 µM) | – | – | –
CC(C)(O/N=C(\C(=O)N[C@@H]1C(=O)N2C[C@](SCCNC(=O)c3ccc(O)c(O)c3Cl)(C(=O)O)SC12)c1csc(N)n1)C(=O)O (stereo partly drawn) [Example 18, (3R,5R,6R)-6-((Z)-2-(2-aminothiazol-4-yl)-2-(((2-carboxypropan-2-yl)oxy)imino)acetamide)-3-((2-(2-chloro-3,4-dihydroxybenzamide)ethyl)thio)-7-oxo-4-thia-1-azabicyclo[3.2.0]heptane-3-carboxylic acid] | – | – | – | 0.125 (≈ 0.181 µM) | 2 (≈ 2.9 µM) | 4 (≈ 5.8 µM)
CC(C)(O/N=C(\C(=O)N[C@@H]1C(=O)N2C[C@](SC3CN(C(=O)C(=NNC(N)=O)c4ccc(O)c(O)c4Cl)C3)(C(=O)O)S[C@H]12)c1csc(N)n1)C(=O)O [Example 11, (3R,5R,6R)-6-((Z)-2-(2-aminothiazol-4-yl)-2-(((2-carboxypropan-2-yl)oxy)imino)acetamide)-3-((1-((Z)-2-(2-carbamoylhydrazono)-2-(2-chloro-3,4-dihydroxyphenyl)acetyl)azetidin-3-yl)thio)-7-oxo-4-thia-1-azabicyclo[3.2.0]heptane-3-carboxylic acid] | – | – | – | ≤ 0.0625 | 1 (≈ 1.27 µM) | 2 (≈ 2.54 µM)
CC(C)(O/N=C(\C(=O)N[C@@H]1C(=O)N2C[C@](SCCNC(=O)/C(=N\O)c3ccc(O)c(O)c3Cl)(C(=O)O)S[C@H]12)c1csc(N)n1)C(=O)O [Example 4, (3R,5R,6R)-6-((Z)-2-(2-aminothiazol-4-yl)-2-(((2-carboxypropan-2-yl)oxy)imino)acetamide)-3-((2-((Z)-2-(2-chloro-3,4-dihydroxyphenyl)-2-(hydroxyimino)acetamide)ethyl)thio)-7-oxo-4-thia-1-azabicyclo[3.2.0]heptane-3-carboxylic acid] | ≤0.0625 | 8 (≈ 10.9 µM) | 32 (≈ 43.7 µM) | – | – | –
CC(C)(O/N=C(\C(=O)N[C@@H]1C(=O)N2C[C@](SCCNC(=O)/C(=N\NC(N)=O)c3ccc(O)c(O)c3Cl)(C(=O)O)S[C@H]12)c1csc(N)n1)C(=O)O [Example 12] | – | – | – | ≤ 0.0625 | 16 (≈ 20.7 µM) | 4 (≈ 5.17 µM)
COC[C@H](CS[C@]1(C(=O)O)CN2C(=O)[C@@H](NC(=O)/C(=N\OC(C)(C)C(=O)O)c3csc(N)n3)[C@H]2S1)NC(=O)C(=O)c1ccc(O)c(O)c1Cl [Example 3, (3R,5R,6R)-6-((Z)-2-(2-aminothiazol-4-yl)-2-(((2-carboxypropan-2-yl)oxy)imino)acetamide)-3-(((R)-2-(2-(2-chloro-3,4-dihydroxyphenyl)-2-oxoacetamide)-3-methoxypropyl)thio)-7-oxo-4-thia-1-azabicyclo[3.2.0]heptane-3-carboxylic acid] | ≤0.0625 | 0.5 (≈ 0.657 µM) | 1 (≈ 1.31 µM) | – | – | –
CN/N=C(\C(=O)NCCS[C@]1(C(=O)O)CN2C(=O)[C@@H](NC(=O)/C(=N\OC(C)(C)C(=O)O)c3csc(N)n3)[C@H]2S1)c1ccc(O)c(O)c1Cl [Example 8, (3R,5R,6R)-6-((Z)-2-(2-aminothiazol-4-yl)-2-(((2-carboxypropan-2-yl)oxy)imino)acetamide)-3-((2-((Z)-2-(2-chloro-3,4-dihydroxyphenyl)-2-(2-methylhydrazono)acetamide)ethyl)thio)-7-oxo-4-thia-1-azabicyclo[3.2.0]heptane-3-carboxylic acid] | – | – | – | ≤ 0.0625 | 2 (≈ 2.68 µM) | 0.25 (≈ 0.335 µM)
CC(C)(O/N=C(\C(=O)N[C@@H]1C(=O)N2C[C@](SCCNC(=O)/C(=N\N)c3ccc(O)c(O)c3Cl)(C(=O)O)S[C@H]12)c1csc(N)n1)C(=O)O [Example 26, (3R,5R,6R)-6-((Z)-2-(2-aminothiazol-4-yl)-2-(((2-carboxypropan-2-yl)oxy)imino)acetamide)-3-((2-((Z)-2-(2-chloro-3,4-dihydroxyphenyl)-2-hydrazinylideneacetamide)ethyl)thio)-7-oxo-4-thia-1-azabicyclo[3.2.0]heptane-3-carboxylic acid] | 0.5 (≈ 0.684 µM) | 8 (≈ 10.9 µM) | 1 (≈ 1.37 µM) | – | – | –
CC(C)(O/N=C(\C(=O)N[C@@H]1C(=O)N2C[C@](SC[C@H]3COCCN3C(=O)c3ccc(O)c(O)c3Cl)(C(=O)O)SC12)c1csc(N)n1)C(=O)O (stereo partly drawn) [Example 20, (3R,5R,6R)-6-((Z)-2-(2-aminothiazol-4-yl)-2-(((2-carboxypropan-2-yl)oxy)imino)acetamide)-3-((((R)-4-(2-chloro-3,4-dihydroxybenzoyl)morpholin-3-yl)methyl)thio)-7-oxo-4-thia-1-azabicyclo[3.2.0]heptane-3-carboxylic acid] | – | – | – | 0.5 (≈ 0.671 µM) | 4 (≈ 5.37 µM) | 4 (≈ 5.37 µM)
CC(C)(O/N=C(\C(=O)N[C@@H]1C(=O)N2C[C@](SCCNC(=O)/C(=N\NC(N)=O)c3cc(O)c(O)cc3Cl)(C(=O)O)S[C@H]12)c1csc(N)n1)C(=O)O [Example 24, (3R,5R,6R)-6-((Z)-2-(2-aminothiazol-4-yl)-2-(((2-carboxypropan-2-yl)oxy)imino)acetamide)-3-((2-((Z)-2-(2-carbamoylhydrazinylidene)-2-(2-chloro-4,5-dihydroxyphenyl)acetamide)ethyl)thio)-7-oxo-4-thia-1-azabicyclo[3.2.0]heptane-3-carboxylic acid] | – | – | – | 0.5 (≈ 0.646 µM) | 8 (≈ 10.3 µM) | 4 (≈ 5.17 µM)
CC(C)(O/N=C(\C(=O)N[C@@H]1C(=O)N2C[C@](SCCNNC(=O)c3ccc(O)c(O)c3Cl)(C(=O)O)S[C@H]12)c1csc(N)n1)C(=O)O [Example 28, (3R,5R,6R)-6-((Z)-2-(2-aminothiazol-4-yl)-2-(((2-carboxypropan-2-yl)oxy)imino)acetamide)-3-((2-(2-(2-chloro-3,4-dihydroxybenzoyl)hydradienyl)ethyl)thio)-7-oxo-4-thia-1-azabicyclo[3.2.0]heptane-3-carboxylic acid] | 1 (≈ 1.42 µM) | 1 (≈ 1.42 µM) | 1 (≈ 1.42 µM) | – | – | –
CC(C)(O/N=C(\C(=O)N[C@@H]1C(=O)N2C[C@](SCCNC(=O)/C(=N/NC(N)=O)c3ccc(O)c(O)c3Cl)(C(=O)O)S[C@H]12)c1csc(N)n1)C(=O)O [Example 13, (3R,5R,6R)-6-((Z)-2-(2-aminothiazole-4-yl)-2-(((2-carboxypropan-2-yl)oxy)imino)acetamide)-3-((2-((E)-2-(2-carbamoylhydrazono)-2-(2-chloro-3,4-dihydroxyphenyl)acetamide)ethyl)thio)-7-oxo-4-thia-1-azabicyclo[3.2.0]heptane-3-carboxylic acid] | – | – | – | ≤ 0.0625 | 16 (≈ 20.7 µM) | 8 (≈ 10.3 µM)
CC(C)(O/N=C(\C(=O)N[C@@H]1C(=O)N2C[C@](SC3CN(C(=O)C(=O)c4ccc(O)c(O)c4Cl)C3)(C(=O)O)S[C@H]12)c1csc(N)n1)C(=O)O [Example 2, (3R,5R,6R)-6-((Z)-2-(2-aminothiazol-4-yl)-2-(((2-carboxypropan-2-yl)oxy)imino)acetamide)-3-((1-(2-(2-chloro-3,4-dihydroxyphenyl)-2-oxoacetyl)azetidin-3-yl)thio)-7-oxo-4-thia-1-azabicyclo[3.2.0]heptane-3-carboxylic acid] | ≤0.0625 | 4 (≈ 5.49 µM) | 16 (≈ 21.9 µM) | – | – | –
CC(C)(O/N=C(\C(=O)N[C@@H]1C(=O)N2C[C@](SC3CN(C(=O)/C(=N\O)c4ccc(O)c(O)c4Cl)C3)(C(=O)O)SC12)c1csc(N)n1)C(=O)O (stereo partly drawn) [Example 5, (3R,5R,6R)-6-((Z)-2-(2-aminothiazol-4-yl)-2-(((2-carboxypropan-2-yl)oxy)imino)acetamide)-3-((1-((Z)-2-(2-chloro-3,4-dihydroxyphenyl)-2-(hydroxyimino)acetyl)azetidin-3-yl)thio)-7-oxo-4-thia-1-azabicyclo[3.2.0]heptane-3-carboxylic acid] | – | – | – | ≤ 0.0625 | 8 (≈ 10.8 µM) | 16 (≈ 21.5 µM)
